The data set concerns CCRIS mutagenicity, Ames/micronucleus/aberration tests. In words: CCRIS mutagenicity studies.
The mark [1] stands for this setting: Test System: AMES SALMONELLA TYPHIMURIUM, Strain/Indicator: TA98, Metabolic Activation: NONE, Method: PREINCUBATION
[2] abbreviates: Test System: AMES SALMONELLA TYPHIMURIUM, Strain/Indicator: TA98, Metabolic Activation: NONE, Method: STANDARD PLATE.
Setting [3] is: Test System: AMES SALMONELLA TYPHIMURIUM, Strain/Indicator: TA100, Metabolic Activation: NONE, Method: PREINCUBATION
Setting [4] is: Test System: AMES SALMONELLA TYPHIMURIUM, Strain/Indicator: TA100, Metabolic Activation: NONE, Method: STANDARD PLATE.
Setting [5] is: Test System: AMES SALMONELLA TYPHIMURIUM, Strain/Indicator: TA1535, Metabolic Activation: NONE, Method: PREINCUBATION
Setting [6] is: Test System: AMES SALMONELLA TYPHIMURIUM, Strain/Indicator: TA1537, Metabolic Activation: NONE, Method: PREINCUBATION

For six compounds, mutagenic call results are on record in PubChem BioAssay AID1259407 (Chemical Carcinogenesis Research Information System (CCRIS), 2018).

Active and inactive are the calls of the source. No rule for the calls is given here.

For `CC1(C)O[C@H]1COc1c2ccoc2cc2oc(=O)ccc12`, the mutagenic call is “inactive; negative” (Test System: AMES SALMONELLA TYPHIMURIUM, Strain/Indicator: TA92, Metabolic Activation: NONE, Method: SPOT TEST); “inactive; negative” (Test System: AMES SALMONELLA TYPHIMURIUM, Strain/Indicator: TA92, Metabolic Activation: RAT, LIVER, S-9, AROCLOR 1254, Method: SPOT TEST); “inactive; negative” (Test System: AMES SALMONELLA TYPHIMURIUM, Strain/Indicator: TA94, Metabolic Activation: NONE, Method: SPOT TEST); “inactive; negative” (Test System: AMES SALMONELLA TYPHIMURIUM, Strain/Indicator: TA94, Metabolic Activation: RAT, LIVER, S-9, AROCLOR 1254, Method: SPOT TEST); “inactive; negative” (Test System: AMES SALMONELLA TYPHIMURIUM, Strain/Indicator: TA97, Metabolic Activation: NONE, Method: SPOT TEST); “inactive; negative” (Test System: AMES SALMONELLA TYPHIMURIUM, Strain/Indicator: TA97, Metabolic Activation: RAT, LIVER, S-9, AROCLOR 1254, Method: SPOT TEST). The mutagenic call (Test System: AMES SALMONELLA TYPHIMURIUM, Strain/Indicator: TA98, Metabolic Activation: NONE, Method: SPOT TEST) is “inactive; negative”; the mutagenic call (Test System: AMES SALMONELLA TYPHIMURIUM, Strain/Indicator: TA98, Metabolic Activation: RAT, LIVER, S-9, AROCLOR 1254, Method: SPOT TEST) was “inactive; negative”; the mutagenic call (Test System: AMES SALMONELLA TYPHIMURIUM, Strain/Indicator: TA100, Metabolic Activation: NONE, Method: SPOT TEST) is “inactive; negative”; the mutagenic call (Test System: AMES SALMONELLA TYPHIMURIUM, Strain/Indicator: TA100, Metabolic Activation: RAT, LIVER, S-9, AROCLOR 1254, Method: SPOT TEST) is “inactive; negative”; the mutagenic call (Test System: AMES SALMONELLA TYPHIMURIUM, Strain/Indicator: TA102, Metabolic Activation: NONE, Method: SPOT TEST) was “inactive; negative”; the mutagenic call (Test System: AMES SALMONELLA TYPHIMURIUM, Strain/Indicator: TA102, Metabolic Activation: RAT, LIVER, S-9, AROCLOR 1254, Method: SPOT TEST) was “inactive; negative”.
For the compound `COc1ccc(C(=O)N2CCN(c3ccc4c(c3)CCC(=O)N4)CC2)cc1OC`, the mutagenic call was “inactive; negative” (Test System: AMES SALMONELLA TYPHIMURIUM, Strain/Indicator: TA97, Metabolic Activation: NONE, Method: STANDARD PLATE); “inactive; negative” (Test System: AMES SALMONELLA TYPHIMURIUM, Strain/Indicator: TA97, Metabolic Activation: S-9, Method: STANDARD PLATE); “inactive; negative” under setting [1]; “inactive; negative” under setting [2]; “inactive; negative” (Test System: AMES SALMONELLA TYPHIMURIUM, Strain/Indicator: TA98, Metabolic Activation: RAT, LIVER, S-9, Method: PREINCUBATION); “inactive; negative” (Test System: AMES SALMONELLA TYPHIMURIUM, Strain/Indicator: TA98, Metabolic Activation: S-9, Method: STANDARD PLATE). Besides, the mutagenic call runs as follows: under setting [3], “inactive; negative”; under setting [4], “inactive; negative”; (Test System: AMES SALMONELLA TYPHIMURIUM, Strain/Indicator: TA100, Metabolic Activation: RAT, LIVER, S-9, Method: PREINCUBATION) “inactive; negative”; (Test System: AMES SALMONELLA TYPHIMURIUM, Strain/Indicator: TA102, Metabolic Activation: NONE, Method: STANDARD PLATE) “inactive; negative”; (Test System: AMES SALMONELLA TYPHIMURIUM, Strain/Indicator: TA102, Metabolic Activation: S-9, Method: STANDARD PLATE) “inactive; negative”; under setting [5], “inactive; negative”. Further, the mutagenic call runs as follows: (Test System: AMES SALMONELLA TYPHIMURIUM, Strain/Indicator: TA1535, Metabolic Activation: RAT, LIVER, S-9, Method: PREINCUBATION) “inactive; negative”; under setting [6], “inactive; negative”; (Test System: AMES SALMONELLA TYPHIMURIUM, Strain/Indicator: TA1537, Metabolic Activation: RAT, LIVER, S-9, Method: PREINCUBATION) “inactive; negative”; (Test System: AMES SALMONELLA TYPHIMURIUM, Strain/Indicator: TA1538, Metabolic Activation: NONE, Method: PREINCUBATION) “inactive; negative”; (Test System: AMES SALMONELLA TYPHIMURIUM, Strain/Indicator: TA1538, Metabolic Activation: RAT, LIVER, S-9, Method: PREINCUBATION) “inactive; negative”; (Test System: E. COLI, Strain/Indicator: WP2 UVRA, Metabolic Activation: NONE, Method: PREINCUBATION) “inactive; negative”. The mutagenic call (Test System: E. COLI, Strain/Indicator: WP2 UVRA, Metabolic Activation: RAT, LIVER, S-9, Method: PREINCUBATION) was “inactive; negative”.
Regarding `NC(=O)c1cnccn1`, the mutagenic call reads like this: (Test System: AMES SALMONELLA TYPHIMURIUM, Strain/Indicator: TA98, Metabolic Activation: HAMSTER, LIVER, S-9, AROCLOR 1254 (10%), Method: PREINCUBATION) “inactive; negative”; under setting [1], “inactive; negative”; (Test System: AMES SALMONELLA TYPHIMURIUM, Strain/Indicator: TA98, Metabolic Activation: RAT, LIVER, S-9, AROCLOR 1254 (10%), Method: PREINCUBATION) “inactive; negative”; (Test System: AMES SALMONELLA TYPHIMURIUM, Strain/Indicator: TA100, Metabolic Activation: HAMSTER, LIVER, S-9, AROCLOR 1254 (10%), Method: PREINCUBATION) “inactive; negative”; under setting [3], “inactive; negative”; (Test System: AMES SALMONELLA TYPHIMURIUM, Strain/Indicator: TA100, Metabolic Activation: RAT, LIVER, S-9, AROCLOR 1254 (10%), Method: PREINCUBATION) “inactive; negative”. Further, the mutagenic call is “inactive; negative” (Test System: AMES SALMONELLA TYPHIMURIUM, Strain/Indicator: TA1535, Metabolic Activation: HAMSTER, LIVER, S-9, AROCLOR 1254 (10%), Method: PREINCUBATION); “inactive; negative” under setting [5]; “inactive; negative” (Test System: AMES SALMONELLA TYPHIMURIUM, Strain/Indicator: TA1535, Metabolic Activation: RAT, LIVER, S-9, AROCLOR 1254 (10%), Method: PREINCUBATION); “inactive; negative” (Test System: AMES SALMONELLA TYPHIMURIUM, Strain/Indicator: TA1537, Metabolic Activation: HAMSTER, LIVER, S-9, AROCLOR 1254 (10%), Method: PREINCUBATION); “inactive; negative” under setting [6]; “inactive; negative” (Test System: AMES SALMONELLA TYPHIMURIUM, Strain/Indicator: TA1537, Metabolic Activation: RAT, LIVER, S-9, AROCLOR 1254 (10%), Method: PREINCUBATION).
In the case of `CC1OC1c1ccc(C#N)cc1` (stereo not drawn), under setting [3], the mutagenic call is “active; positive”.
Turning to `CC1CNC(=O)N1c1ncc([N+](=O)[O-])s1` (stereo not drawn), the mutagenic call runs as follows: under setting [2], “active; positive”; under setting [4], “active; positive”.
Regarding `Cc1cc(=O)oc2cc(O)cc(O)c12`, the mutagenic call by setting is: (Test System: AMES SALMONELLA TYPHIMURIUM, Strain/Indicator: TA98, Metabolic Activation: HAMSTER, LIVER, S-9, AROCLOR 1254, Method: PREINCUBATION) “inactive; negative”; under setting [1], “inactive; negative”; (Test System: AMES SALMONELLA TYPHIMURIUM, Strain/Indicator: TA98, Metabolic Activation: RAT, LIVER, S-9, AROCLOR 1254, Method: PREINCUBATION) “inactive; negative”; (Test System: AMES SALMONELLA TYPHIMURIUM, Strain/Indicator: TA100, Metabolic Activation: HAMSTER, LIVER, S-9, AROCLOR 1254, Method: PREINCUBATION) “inactive; negative”; under setting [3], “inactive; negative”; (Test System: AMES SALMONELLA TYPHIMURIUM, Strain/Indicator: TA100, Metabolic Activation: RAT, LIVER, S-9, AROCLOR 1254, Method: PREINCUBATION) “inactive; negative”. Further, the mutagenic call (Test System: AMES SALMONELLA TYPHIMURIUM, Strain/Indicator: TA1535, Metabolic Activation: HAMSTER, LIVER, S-9, AROCLOR 1254, Method: PREINCUBATION) is “inactive; negative”; the mutagenic call under setting [5] was “inactive; negative”; the mutagenic call (Test System: AMES SALMONELLA TYPHIMURIUM, Strain/Indicator: TA1535, Metabolic Activation: RAT, LIVER, S-9, AROCLOR 1254, Method: PREINCUBATION) is “inactive; negative”; the mutagenic call (Test System: AMES SALMONELLA TYPHIMURIUM, Strain/Indicator: TA1537, Metabolic Activation: HAMSTER, LIVER, S-9, AROCLOR 1254, Method: PREINCUBATION) was “inactive; negative”; the mutagenic call under setting [6] is “inactive; negative”; the mutagenic call (Test System: AMES SALMONELLA TYPHIMURIUM, Strain/Indicator: TA1537, Metabolic Activation: RAT, LIVER, S-9, AROCLOR 1254, Method: PREINCUBATION) is “inactive; negative”.
